The target of experiment [1] is T1, Serine/threonine-protein kinase PLK4 (Homo sapiens, UniProt O00444).
T1 sequence (O00444 whole entry): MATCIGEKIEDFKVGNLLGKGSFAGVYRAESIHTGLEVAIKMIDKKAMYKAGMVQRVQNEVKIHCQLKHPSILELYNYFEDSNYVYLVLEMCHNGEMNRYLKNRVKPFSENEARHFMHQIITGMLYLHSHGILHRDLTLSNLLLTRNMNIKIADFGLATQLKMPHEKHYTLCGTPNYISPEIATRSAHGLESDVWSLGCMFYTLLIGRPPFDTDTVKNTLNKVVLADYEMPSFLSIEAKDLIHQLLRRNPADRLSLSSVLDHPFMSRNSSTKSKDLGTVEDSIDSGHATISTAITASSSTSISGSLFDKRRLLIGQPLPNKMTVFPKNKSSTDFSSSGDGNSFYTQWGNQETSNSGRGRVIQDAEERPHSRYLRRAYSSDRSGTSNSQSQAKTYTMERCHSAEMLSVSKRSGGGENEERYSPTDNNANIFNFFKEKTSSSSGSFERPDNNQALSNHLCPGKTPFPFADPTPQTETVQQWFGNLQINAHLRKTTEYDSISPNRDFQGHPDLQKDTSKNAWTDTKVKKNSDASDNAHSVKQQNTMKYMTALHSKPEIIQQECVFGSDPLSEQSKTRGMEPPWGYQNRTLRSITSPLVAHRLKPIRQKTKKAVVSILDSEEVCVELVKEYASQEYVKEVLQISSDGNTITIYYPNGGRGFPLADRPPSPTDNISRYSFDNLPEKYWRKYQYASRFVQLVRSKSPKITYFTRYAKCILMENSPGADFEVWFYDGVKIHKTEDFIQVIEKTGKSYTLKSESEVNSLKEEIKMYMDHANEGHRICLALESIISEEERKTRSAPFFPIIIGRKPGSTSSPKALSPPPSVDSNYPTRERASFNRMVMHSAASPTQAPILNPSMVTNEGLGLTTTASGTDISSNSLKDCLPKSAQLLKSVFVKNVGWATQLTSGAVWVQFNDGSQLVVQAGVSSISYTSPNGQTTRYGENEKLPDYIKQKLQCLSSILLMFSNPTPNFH
Nature of the experiment: Inhibition of PLK4 (unknown origin).

Experiment [2] has as its target T1, Serine/threonine-protein kinase PLK4. The experiment in a line: Binding affinity to PLK4 (unknown origin) assessed as inhibition constant.
Experiment [3] in a line: Selectivity ratio of Ki for PLK4 (unknown origin) to Ki for AURORA-A (unknown origin).
Experiment [4] deals with Serine/threonine-protein kinase PLK2 (Homo sapiens, UniProt Q9NYY3). The experiment in a line: Inhibition of full length PLK2 (unknown origin).
Experiment [5] is described as follows: Antiproliferative activity against human TNBC cells assessed as reduction in cell viability. It is filed as functional, cell-based. To be noted: Breast carcinoma cell.
For another experiment, the system named is MDA-MB-468. Nature of the experiment: Antitumor activity against human MDA-MB-468 cells xenografted in nude mouse assessed as tumor growth inhibition at 20 mg/kg, po relative to control. To be noted: read-out: TGI. The class given is functional. In general terms: A xenograft is tissue or cells of one species grown in another, often human tumour cells in immunodeficient mice.

Another experiment concerns U-87 MG. Nature of the experiment: Antiproliferative activity against human U-87 MG cells assessed as reduction in cell viability measured after 72 hrs by AlamarBlue assay. It is filed as functional, cell-based, U-87MG ATCC. (In general: Resazurin is reduced to fluorescent resorufin, in cell work by metabolically active cells.)
For a further experiment, the system named is MDA-MB-231. Nature of the experiment: Antiproliferative activity against human MDA-MB-231 cells assessed as reduction in cell viability measured after 72 hrs by AlamarBlue assay. It is filed as functional, cell-based. To be noted: MDA-MB-231, 72 h.
A further experiment has as its system A2780. The experiment in a line: Antiproliferative activity against human A2780 cells assessed as reduction in cell viability measured after 72 hrs by AlamarBlue assay. As to conditions: A2780, 72 h. It is filed as functional, cell-based.
The subject of another experiment is HCT-116. Nature of the experiment: Antiproliferative activity against human HCT-116 cells assessed as reduction in cell viability measured after 72 hrs by AlamarBlue assay. It is filed as functional, cell-based. As to conditions: HCT-116, 72 h.
A further experiment relates to NCI-H1299. The experiment in a line: Antiproliferative activity against human NCI-H1299 cells assessed as reduction in cell viability measured after 72 hrs by AlamarBlue assay. The class given is functional, cell-based. To be noted: NCI-H1299, 72 h.

Sequence of Serine/threonine-protein kinase PLK2 (Q9NYY3 whole entry): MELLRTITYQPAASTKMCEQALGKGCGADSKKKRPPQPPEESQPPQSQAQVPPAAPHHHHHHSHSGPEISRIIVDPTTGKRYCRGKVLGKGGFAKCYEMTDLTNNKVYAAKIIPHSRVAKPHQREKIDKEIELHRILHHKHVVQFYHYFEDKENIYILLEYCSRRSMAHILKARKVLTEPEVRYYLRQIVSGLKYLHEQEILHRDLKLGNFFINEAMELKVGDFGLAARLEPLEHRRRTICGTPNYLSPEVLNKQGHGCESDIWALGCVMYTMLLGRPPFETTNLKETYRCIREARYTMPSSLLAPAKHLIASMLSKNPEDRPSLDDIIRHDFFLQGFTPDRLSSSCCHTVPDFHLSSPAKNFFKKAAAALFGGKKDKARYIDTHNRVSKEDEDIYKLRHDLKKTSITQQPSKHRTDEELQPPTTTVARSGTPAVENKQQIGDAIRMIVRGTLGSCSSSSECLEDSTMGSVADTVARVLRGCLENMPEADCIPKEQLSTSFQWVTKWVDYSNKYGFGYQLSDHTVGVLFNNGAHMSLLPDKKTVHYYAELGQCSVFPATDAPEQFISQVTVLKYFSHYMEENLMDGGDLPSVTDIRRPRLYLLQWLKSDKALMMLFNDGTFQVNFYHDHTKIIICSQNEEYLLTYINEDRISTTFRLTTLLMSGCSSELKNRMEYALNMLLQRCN

For orientation: IC50 means the concentration that gives 50% inhibition. In the case of `CNC(=O)c1ccccc1Nc1nc(Nc2ccc(S(C)(=O)=O)cc2)nc2[nH]ncc12`, in [1], 27 nM corresponded to half-maximal inhibition (IC50).
The Ki is a dissociation constant, usually derived from enzyme kinetics or from competition with a known ligand. Turning to `COc1c(Nc2cc(C)[nH]n2)nc(Sc2ccc(NC(=O)C3CC3)cc2)nc1N1CCN(C)CC1`, in experiment [2], the Ki stood at 15 nM. The Ratio Ki in experiment [3] was determined as 15.
In the case of `Cn1c2ccccc2c2c3c(c4c5ccccc5n(CCC#N)c4c21)CNC3=O` [GO-6976], the IC50 in [4] is greater than 19 µM.
As to `COc1c(Nc2cc(C)[nH]n2)nc(Sc2ccc(S(=O)(=O)Cc3cccc([N+](=O)[O-])c3F)cc2F)nc1N1CCCCC1`, the Ratio Ki in experiment [3] came to 2100.
With `CC(=O)Nc1nccc(-c2ccc3c(/C=C/c4ccc(CN(C)C)cc4)n[nH]c3c2)n1`, the 50% inhibitory concentration (IC50) in experiment [5] was determined as 60 nM. In addition, the inhibition in vivo at 20 mg/kg in the experiment on MDA-MB-468 came to 80%.
For the molecule `CN(C)Cc1ccc(/C=C/c2n[nH]c3cc(-c4ccnc(N)n4)ccc23)cc1`, the IC50 in experiment [5] was 60 nM; in [1], 11.2 nM. The inhibition in vivo at 20 mg/kg with MDA-MB-468 turned out to be 80%.
On to `c1ccc(CNc2nc(Nc3cccc(N4CCOCC4)c3)nc3[nH]ncc23)cc1`, for which, in experiment [1], the half-inhibitory concentration (IC50) came to 2100 nM.
Take `COCCOc1ccc2cc1OCC(=O)N(C)CCCN(C)Cc1c[nH]c3ncnc(c13)N2`: the IC50 in the experiment with U-87 MG, in the experiment on MDA-MB-231, in the experiment on A2780, in the experiment with HCT-116 and in the experiment on NCI-H1299 was 5 nM each time.

(Values after ChEMBL document CHEMBL5512608, “Therapeutic potential of targeting polo-like kinase 4” (Eur J Med Chem, 2024).)
